Values of other authors, collected in PMC5845004, “Novel (p)ppGpp Binding and Metabolizing Proteins of Escherichia coli” (mBio, 2018).
Several values for one entry are separate records, joined by “and”; a condition that tells them apart may be missing. Equal values may be shown once. Read-outs that look alike come from different tables or passages of the source.

Assays:
Apt = Apt (Escherichia coli, UniProt P69503); details: cited from earlier work
LdcC = target: LdcC; parameters: method as in Table S1 (19); details: ref Table S1 (19); cited from earlier work
HprT = tested on: HprT; parameters: method as in ref 46 (Table S1 ref 3); details: ref 46 (Table S1 ref 3); read-out: IC50, B. subtilis HprT; cited from earlier work
RelA = tested on: RelA; parameters: method as in ref 36 (Table S1 ref 16); details: ref 36 (Table S1 ref 16); cited from earlier work
EF-Tu = target: EF-Tu; parameters: method as in Table S1 (9); details: ref Table S1 (9); cited from earlier work
Hpt = Hpt (Escherichia coli, UniProt P0A9M2); parameters: method as in ref 29-32 (Table S1 refs 1, 2); details: ref 29-32 (Table S1 refs 1, 2); cited from earlier work
EF-G = target: EF-G; parameters: method as in Table S1 (9); details: ref Table S1 (9), cited from earlier work

Hpt, sequence (P0A9M2 whole entry): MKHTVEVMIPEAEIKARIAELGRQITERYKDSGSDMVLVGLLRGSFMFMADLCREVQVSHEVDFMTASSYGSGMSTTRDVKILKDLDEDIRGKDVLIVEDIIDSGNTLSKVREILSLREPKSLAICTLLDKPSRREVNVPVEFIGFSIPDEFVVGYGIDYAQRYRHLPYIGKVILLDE
Apt, sequence (P69503 whole entry): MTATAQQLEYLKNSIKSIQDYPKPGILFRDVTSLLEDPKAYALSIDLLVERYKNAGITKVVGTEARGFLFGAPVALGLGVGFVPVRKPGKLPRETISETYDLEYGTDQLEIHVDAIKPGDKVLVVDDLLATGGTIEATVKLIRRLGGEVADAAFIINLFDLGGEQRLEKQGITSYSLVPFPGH

**Q.** What does the source list for `Nc1nc2c(ncn2[C@@H]2O[C@H](COP(=O)(O)OP(=O)(O)O)[C@@H](OP(=O)(O)OP(=O)(O)O)[C@H]2O)c(=O)[nH]1` [ppGpp, guanosine tetraphosphate]?
**A.** IC50 (Apt): ~1500 µM; Kd (LdcC): 0.1 to 0.5 µM; IC50 (HprT): 11 µM; effect on RelA activity (RelA): allosterically stimulates; Ki (EF-Tu): 60 µM; IC50 (Hpt): ~85 µM and 85 µM; Ki (EF-G; in the absence of EF-Ts): 0.7 µM; Ki (EF-G; in the presence of EF-Ts): 40 µM
